The source of these data is patent US20090298891A1, “Methods of Treating or Preventing Cancer Using Pyridine Carboxaldehyde Pyridine Thiosemicarbazone Radiosensitizing Agents” (GOVERNMENT OF THE US, AS REPRESENTED BY THE SECRETADY OF …, priority 2005, published 2009).

Assay [1] deals with PSN1 (pancreatic carcinoma) cell line. Briefly: Clonogenic assay, PSN1. Format: cell-based, human. The protocol: (§1) Cell lines and treatment. Three human tumor cell lines were evaluated: a glioma (U251), a pancreatic carcinoma (PSN1) and a prostate carcinoma (DU145), each was obtained from the Developmental Therapeutics Program, DCTD, NCI. The cell lines were grown in RPMI 1640 (Life Technologies, Rockville, Md.) containing […] (5 mM) and 5% FBS and maintained at 37° C. in an atmosphere of 5% CO2 and 95% room air. Triapine (3-amino-2-carboxaldehyde-pyridine thiosemicarbazone), provided by Vion Pharmaceuticals of New Haven, Conn., was dissolved in dimethylsulfoxide to a stock concentration of 10 mM and stored at −20° C. Cultures were irradiated using a Pantak (Solon, Ohio) X-ray source at a dose rate of 1.55 Gy/minute.
(§2) Clonogenic assay. Cell cultures were trypsinized to generate a single cell suspension and a specified number of cells were seeded into each well of 6-well tissue culture plates. In the first experiment, drug or vehicle control was, added at specified concentrations, and the plates were irradiated 16 hours later. Immediately after irradiation, the growth media was aspirated, and fresh media was added. In the second experiment, cells were seeded, and irradiated 6 hours after seeding. Immediately after irradiation, the cells were treated with the specified concentration of drug. After 16 hours of exposure, drug was aspirated, and replaced with fresh media. Ten to twelve days after seeding, colonies were stained with crystal violet, and the number of colonies containing at least 50 cells was determined and the surviving fractions were calculated. Survival curves were generated after normalizing for the cytotoxicity generated by drug alone. Data presented are the mean±SEM from at least three independent experiments. Radiation dose enhancement factors (DEFs) represent the ratio of radiation dose required to achieve 10% survival in the control cells and the drug-treated cells.

In assay [2] the test system is DU145 (prostate carcinoma) cell line. Put plainly: Clonogenic assay, DU145. The class given is cell-based, human. As for the experimental part:
as §1, §2

In assay [3] the test system is U251 (human glioma) cell line. Put plainly: Clonogenic assay, U251. Format: cell-based. As for the experimental part: as §1, §2
Assay [4] relates to DNA synthesis activity in U251 cells. Put plainly: DNA synthesis assay (BrdU incorporation). The class given is cell-based, human. The conditions noted are these: after 16 hours of Triapine exposure. The protocol: DNA Synthesis Assay. DNA synthesis was quantified as an indirect measure of ribonucleotide reductase activity. A 5-bromo-2′-deoxyuridine (BrdU) incorporation assay kit (#1669915) produced by Roche Applied Science (Mannheim, Germany) was used. Cells were seeded in wells of a black wall 96-well plate and allowed to incubate for 24 hours. Drug was added, and after 16 hours of exposure, 10 μM BrdU pulses were added hourly for 2 hours, according to manufacturer's instructions. After fixation, an anti-BrdU peroxidase antibody conjugate was applied for 90 minutes at room temperature. The conjugate was then rinsed three times, and luminol was added. Chemiluminescence was detected with a Wallac 1420 multilabel counter (Perkin Elmer Life Sciences, Turku, Finland), and data was exported for off-line analysis. Triplicate samples were run for three independent experiments; data is presented as the mean of three experiments±SEM.
In general terms: Incorporation of labelled thymidine or its analogues reports DNA synthesis.

Another assay concerns U251 cells. Put plainly: Cell cycle phase analysis (flow cytometry). The settings on record: 16 hours of Triapine exposure (5 μM). Format: cell-based, human. As for the experimental part: Cell Cycle Phase Analysis. Cell cycle phase distribution was analyzed using flow cytometry. Cells were seeded in T75 flasks at subconfluent density and exposed to Triapine, or vehicle for 16 hours, at which time cells were fixated and stained with propidium iodide for flow cytometry analysis at the Clinical Services Program at the National Cancer Institute-Frederick. A two-tailed, paired t-test was performed on the data from the replicated analysis.

The next assay relates to PSN1 tumors. Put plainly: In vivo tumor growth delay assay, PSN1 xenografts. Also noted: species or system mice. The protocol: (§3) In Vivo Tumor Growth Delay Assay. Male 6 week old athymic nude mice (NCr nu/nu) were used in these studies. Mice, housed in filter-topped cages, were provided autoclaved feed and hyperchlorinated water ad libitum. U251 or PSN1 tumor cells were implanted subcutaneously in the hind leg. Irradiation was performed using a Pantak (Solon, Ohio) irradiator with animals restrained in a custom lead jig, which allowed for the localized irradiation of tumors at the base of the tail. When tumors reached 177 mm^3 (7×7 mm) Triapine (30-60 mg/kg) was delivered by intraperitoneal injection and 6 h later tumors were irradiated with a single dose of 4 or 5 Gy. To obtain growth curves, perpendicular diameter measurements of each tumor were collected every 3 days with calipers, and the volumes were calculated using the formula (L×W×W)/2. Tumors were followed until the group's tumors were greater than 1500 mm^3. Specific tumor growth delay was calculated as the number of days for the treated tumors to grow to 1400 mm^3 minus the number of days for the control group to reach the same size. Each experimental group contained 10 mice and the untreated group contained 15 mice. All animal studies were conducted in accordance with the principles and procedures outlined in the U.S.P.H.S. Guide for the Care and Use of Laboratory Animals in an AAALAC-approved facility under an approved animal protocol.
In vivo activity of Triapine in conjunction with radiation was determined through growth delays in mice with subcutaneous human tumor xenografts. Based on the above described in vitro results, xenografts of PSN1 and U251 were evaluated in vivo. Triapine (40 mg/kg) was given 6 hours prior to a single radiation dose (4 or 5 Gy). After 3 volumetric doublings of the PSN1 tumors, Triapine alone yielded a 1.6 day growth delay, and radiation caused a 9.8 day growth delay. […] See, FIG. 8 (U251) and FIG. 9 (PSN1) for a graph of tumor growth delay data.

For a further assay, the system named is U251 tumors. Briefly: In vivo tumor growth delay assay, U251 xenografts. Also noted: species or system mice. The settings on record: combination of Triapine and radiation. The protocol: as §3, with “Each experimental group contained 10 mice and the untreated group contained 15 mice. All animal studies were conducted in accordance with the principles and procedures outlined in the U.S.P.H.S. Guide for the Care and Use of Laboratory Animals in an AAALAC-approved facility under an approved animal protocol.” left out
In vivo activity of Triapine in conjunction with radiation was determined through growth delays in mice with subcutaneous human tumor xenografts. Based on the above described in vitro results, xenografts of PSN1 and U251 were evaluated in vivo. […]

As for `NC(=S)N/N=C/c1ncccc1N` [Triapine, 3-amino-2-carboxaldehyde-pyridine thiosemicarbazone], the “Survival following 16 hours of Triapine exposure” value is 33% in assay [1] (PSN1, 3 μM, drug alone); 68% in assay [2] (DU145, 5 μM, drug alone); 53% in assay [3] (U251, 5 μM, drug alone). Moreover, the “radiosensitization / DEF, Triapine after irradiation” value is given as “DEFs similar to those obtained when cells were exposed prior to irradiation” in assay [1] (PSN1, Triapine for 16 hours after irradiation); “DEFs similar to those obtained when cells were exposed prior to irradiation” in assay [2] (DU145, Triapine for 16 hours after irradiation); “DEFs similar to those obtained when cells were exposed prior to irradiation” in assay [3] (U251, Triapine for 16 hours after irradiation). Further, the “dose enhancement factor (DEF)” value amounted to 1.64 in assay [1] (PSN1, Triapine given prior to radiation, ratio of radiation dose for 10% survival); 2.05 in assay [2] (DU145, Triapine given prior to radiation, ratio of radiation dose for 10% survival); 1.50 in assay [3] (U251, Triapine given prior to radiation, ratio of radiation dose for 10% survival). Further, in assay [4], the DNA synthesis result is “less than 5 % of control”. Also, in assay [4], the “time for DNA synthesis to return to control levels” value was 7 h. In addition, the “percentage of cells in G1” value in the assay with U251 cells is listed as “increased”. Further, the “percentage of cells in G2/M” value in the assay with U251 cells was “decreased”. In addition, the growth delay in the assay on PSN1 tumors (Triapine alone, 40 mg/kg intraperitoneal, after 3 volumetric doublings of PSN1 tumors) amounted to 1.6 days; in the assay on PSN1 tumors (combination of Triapine (40 mg/kg, 6 hours prior) and single radiation dose (4 or 5 Gy), PSN1 tumors) it was 20.9 days. For the same compound, the “DEF (in vivo)” value in the assay with PSN1 tumors (combination of Triapine and radiation, PSN1 tumors) was found to be 2.0. The “growth delay / DEF effect of combination” value in the assay on U251 tumors is on record as “a similar effect was observed”.
